Data reported in patent publication US10167247B2, “Solid forms of treprostinil” (United Therapeutics Corporation, priority 2013, dated 2019).

What was measured:
Format in all cases: physicochemical
[1] = Dynamic vapor sorption (DVS); conditions: for DVS weight loss: 95 to 5% RH
Procedure: DVS data were collected on a VTI SGA-100 Vapor Sorption Analyzer. NaCl and PVP were used as calibration standards. Samples were not dried prior to analysis. Sorption and desorption data were collected over a range from 5 to 95% RH (or 55 to 95% RH for Form B) at 10% RH increments under a nitrogen purge. The equilibrium criterion used for analysis was less than 0.0100% weight change in 5 minutes with a maximum equilibration time of 3 hours. Data were not corrected for the initial moisture content of the samples.

[2] = Environmental stress (temperature / relative humidity), solid form by XRPD
Procedure: The mesophase treprostinil of FIG. 31 are formed, from top to bottom, from the following solutions: (1) 0.40 water activity slurry with acetone 2 days; (2) DCM slurry 60 to 30° C.; (3) 0.80 water activity slurry with isopropanol 7 days; (4) 1-propanol/water 1:1 v/v slurry ambient temperature; (5) Form B+A+mesophase 50° C. 7 days, (6) Acetonitrile slurry ambient temperature; (7) Form A 50° C. 15 hours; (8) Methanol/ethyl acetate evaporation; (9) Toluene crash precipitation from methyl ethyl ketone.
Solids were stressed in glass vials under various drying and relative humidity (RH) environments for specified times, generally monitoring weight change during stressing. Drying was done via ambient, P2O5, vacuum (ambient and elevated temperatures), and convection oven experiments, for which the only drying condition listed in the tables is the oven temperature. Ambient experiments were conducted by leaving samples exposed in a laboratory fume hood. Specific RH values were achieved by placing the sample inside sealed chambers containing saturated salt solutions or into separate chambers containing P2O5 powder for 0% RH. The salt solutions were selected and prepared based an ASTM standard procedure. For vacuum experiments, vials were covered with nylon filters to prevent potential solid loss. For the elevated temperature experiments, temperature was measured by a NIST-traceable thermometer. […]

[3] = TG-IR heating, post-TG-IR XRPD; conditions: heated 25-97° C.
Procedure: Thermogravimetric infrared (TG-IR) analysis was performed on a TA Instruments thermogravimetric (TG) analyzer model 2050 interfaced to a Magna-IR 560® Fourier transform infrared (IR) spectrophotometer (Thermo Nicolet) equipped with an Ever-Glo mid/far IR source, a potassium bromide (KBr) beamsplitter, and a mercury cadmium telluride (MCT-A) detector. The IR wavelength verification was performed using polystyrene, and the TG calibration standards were nickel and Alumel™. The sample was placed in a platinum sample pan, and the pan was inserted into the TG furnace. The TG instrument was started first, immediately followed by the FT-IR instrument. The TG instrument was operated under a flow of helium at 90 and 10 cc/min for the purge and balance, respectively. The furnace was heated under helium at a rate of 20° C./minute to a final temperature of 97° C. IR spectra were collected approximately every 16 seconds for approximately 13 minutes. Each IR spectrum represents 16 co-added scans collected at a spectral resolution of 4 cm^−1. Volatiles were identified from a search of the High Resolution Nicolet Vapor Phase spectral library (v. 1990-1994).

[4] = Stability tests of anhydrous treprostinil on standing
Procedure: An anhydrous form of treprostinil has been previously described, e.g., in J. Org. Chem. 2004, 69, 1890-1902. The anhydrous form is not stable at room temperature. […] A larger amount of dimers can form at higher temperatures. However, dimer formation is negligible at 5° C. Therefore, anhydrous treprostinil must be refrigerated for storage and transport. In the past, anhydrous treprostinil had to be refrigerated and shipped with ice packs to maintain low (2° C.-8° C.) temperatures.

With CCCCC[C@H](O)CC[C@@H]1[C@H]2Cc3cccc(OCC(=O)O)c3C[C@H]2C[C@H]1O [Treprostinil monohydrate Form B, 2-((1R,2R,3aS,9aS)-2-hydroxy-1-((S)-3-hydroxyoctyl)-2,3,3a,4,9,9a-hexahydro-1H-cyclopenta[b]naphthalen-5-yloxy)acetic acid] the DVS weight gain ([1]; 55 to 95% RH) was 0.4% weight gain 55 to 95% RH, the DVS weight loss [1] was 0.6% weight loss 95 to 5% RH and the “DVS weight gain upon equilibration” value ([1]; equilibration at 55% RH) was 0.3% weight gain upon equilibration at 55% RH.

With CCCCC[C@H](O)CC[C@@H]1[C@H]2Cc3cccc(OCC(=O)O)c3C[C@H]2C[C@H]1O [Treprostinil monohydrate Form A, 2-((1R,2R,3aS,9aS)-2-hydroxy-1-((S)-3-hydroxyoctyl)-2,3,3a,4,9,9a-hexahydro-1H-cyclopenta[b]naphthalen-5-yloxy)acetic acid] the DVS weight gain ([1]; 5 to 95% RH) was 0.7% weight gain 5 to 95% RH, the DVS weight loss [1] was 0.6% weight loss 95 to 5% RH and the “Solid form after stress (XRPD)” value ([2]; 50° C. 15 hours) was “mesophase”. For the same compound, the “Post-TG-IR XRPD (solid form after heating)” value [3] was “mesophase”.

With CCCCC[C@H](O)CC[C@@H]1[C@H]2Cc3cccc(OCC(=O)O)c3C[C@H]2C[C@H]1O [Treprostinil Form C, 2-((1R,2R,3aS,9aS)-2-hydroxy-1-((S)-3-hydroxyoctyl)-2,3,3a,4,9,9a-hexahydro-1H-cyclopenta[b]naphthalen-5-yloxy)acetic acid] the DVS weight gain ([1]; 5 to 75% RH) was 0.2% weight gain 5 to 75% RH, the DVS weight gain ([1]; 75 to 95% RH) was 4.6% weight gain 75 to 95% RH and the DVS weight loss [1] was 0.5% weight loss 95 to 5% RH. For the same compound, the “post-DVS XRPD (solid form after DVS)” value ([1]; after sorption/desorption cycle) was “B + A” and the “DVS weight loss upon equilibration” value ([1]; equilibration at 5% RH) was 0.1% weight loss upon equilibration at 5% RH.

For CCCCC[C@H](O)CC[C@@H]1[C@H]2Cc3cccc(OCC(=O)O)c3C[C@H]2C[C@H]1O [anhydrous treprostinil, 2-((1R,2R,3aS,9aS)-2-hydroxy-1-((S)-3-hydroxyoctyl)-2,3,3a,4,9,9a-hexahydro-1H-cyclopenta[b]naphthalen-5-yloxy)acetic acid], the Dimer formation ([4]; 5° C.) was “negligible” and the Stability ([4]; 25° C., dimers formed upon standing) was “not stable”.

In the case of CCCCC[C@H](O)CC[C@@H]1[C@H]2Cc3cccc(OCC(=O)O)c3C[C@H]2C[C@H]1O [Mesophase treprostinil, 2-((1R,2R,3aS,9aS)-2-hydroxy-1-((S)-3-hydroxyoctyl)-2,3,3a,4,9,9a-hexahydro-1H-cyclopenta[b]naphthalen-5-yloxy)acetic acid], the “Solid form after stress (XRPD)” value ([2]; 97% RH 12 days) is reported as “mesophase+weak Form B”.
